“And” between values parts separate entries of the source, which are not always exact repeats. Equal entries are not always repeated. Inconclusive results and toxic doses are left out. Rule as the data show it: active = T/C of 150% or more; inactive = T/C below 125%.
Tested on: L1210 leukemia ip in BDF1 mice, survival T/C
Experiment: NCI In Vivo Anticancer Drug Screen. Data for tumor model L1210 Leukemia (intraperitoneal) in B6D2F1 (BDF1) mice
Conditions: endpoint: mean survival time, higher = longer survival
In short: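 In this screen, tumor-bearing mice given compound are compared to those given vehicle, and their survival values are reported as a treated-to-control quotient.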

Measured: T/C

Br/C=C/C1=CCCCC1
inactive: dose: 100.0 mg/kg/injection, schedule: Q01DX009 (ip), vehicle: acetone 98 % of control | dose: 100.0 mg/kg/injection, schedule: Q04DX003 (ip), vehicle: saline 97 % of control | dose: 200.0 mg/kg/injection, schedule: Q01DX009 (ip), vehicle: acetone 90 % of control | dose: 200.0 mg/kg/injection, schedule: Q04DX003 (ip), vehicle: saline 92 % of control | dose: 400.0 mg/kg/injection, schedule: Q04DX003 (ip), vehicle: saline 114 % of control

CCOC(=O)CNC(=O)CNC(=O)CCCCSc1ncnc2nc[nH]c12
inactive: dose: 25.0 mg/kg/injection, schedule: Q01DX009 (ip), vehicle: saline 110 % of control | dose: 50.0 mg/kg/injection, schedule: Q01DX009 (ip), vehicle: saline 98 % of control | dose: 50.0 mg/kg/injection, schedule: Q01DX009 (oral), vehicle: saline 104 % of control | dose: 100.0 mg/kg/injection, schedule: Q01DX009 (ip), vehicle: saline 103 % of control | dose: 100.0 mg/kg/injection, schedule: Q01DX009 (oral), vehicle: saline 90 % of control | dose: 200.0 mg/kg/injection, schedule: Q01DX009 (ip), vehicle: saline 101 % of control | dose: 200.0 mg/kg/injection, schedule: Q01DX009 (oral), vehicle: saline 106 % of control | dose: 400.0 mg/kg/injection, schedule: Q01DX009 (ip), vehicle: saline 100 % of control | dose: 400.0 mg/kg/injection, schedule: Q01DX009 (oral), vehicle: saline 93 % of control | dose: 800.0 mg/kg/injection, schedule: Q01DX009 (ip), vehicle: saline 115 % of control | dose: 800.0 mg/kg/injection, schedule: Q01DX009 (oral), vehicle: saline 97 % of control

Clc1ncnc2nc[nH]c12
inactive: dose: 7.5 mg/kg/injection, schedule: Q01DX010 (ip), vehicle: saline 93 % of control and 96 % of control | dose: 9.37 mg/kg/injection, schedule: Q03HX008 (ip), vehicle: other 103 % of control | dose: 9.37 mg/kg/injection, schedule: Q03HX016 (ip), vehicle: other 102 % of control | dose: 9.37 mg/kg/injection, schedule: Q03HX024 (ip), vehicle: other 112 % of control | dose: 12.5 mg/kg/injection, schedule: Q03HX016 (ip), vehicle: other 105 % of control | dose: 12.5 mg/kg/injection, schedule: Q03HX024 (ip), vehicle: other 104 % of control | dose: 15.0 mg/kg/injection, schedule: Q01DX010 (ip), vehicle: saline 93 % of control and 105 % of control | dose: 18.75 mg/kg/injection, schedule: Q03HX008 (ip), vehicle: other 111 % of control | dose: 18.75 mg/kg/injection, schedule: Q03HX016 (ip), vehicle: other 113 % of control | dose: 18.75 mg/kg/injection, schedule: Q03HX024 (ip), vehicle: other 110 % of control | dose: 25.0 mg/kg/injection, schedule: Q01DX006 (iv), vehicle: other 108 % of control | dose: 25.0 mg/kg/injection, schedule: Q03HX016 (ip), vehicle: other 112 % of control | dose: 25.0 mg/kg/injection, schedule: Q03HX024 (ip), vehicle: other 114 % of control | dose: 30.0 mg/kg/injection, schedule: Q01DX010 (ip), vehicle: saline 104 % of control and 107 % of control | dose: 50.0 mg/kg/injection, schedule: Q01DX001 (iv), vehicle: other 98 % of control | dose: 50.0 mg/kg/injection, schedule: Q01DX005 (ip), vehicle: other 103 % of control | dose: 50.0 mg/kg/injection, schedule: Q01DX006 (iv), vehicle: other 108 % of control | dose: 50.0 mg/kg/injection, schedule: Q01DX009 (ip), vehicle: other 106 % of control and 109 % of control | dose: 50.0 mg/kg/injection, schedule: Q01DX009 (oral), vehicle: other 112 % of control | dose: 50.0 mg/kg/injection, schedule: Q01DX009 (sc), vehicle: other 114 % of control | dose: 50.0 mg/kg/injection, schedule: Q01DX Z (ip), vehicle: carboxymethylcellulose (CMC) 110 % of control | dose: 60.0 mg/kg/injection, schedule: Q01DX010 (ip), vehicle: saline 101 % of control and 103 % of control | dose: 75.0 mg/kg/injection, schedule: Q01DX001 (sc), vehicle: other 106 % of control | dose: 75.0 mg/kg/injection, schedule: Q04DX003 (ip), vehicle: other 106 % of control | dose: 75.0 mg/kg/injection, schedule: Q08DX002 (ip), vehicle: other 103 % of control | dose: 100.0 mg/kg/injection, schedule: Q01DX001 (iv), vehicle: other 101 % of control | dose: 100.0 mg/kg/injection, schedule: Q01DX001 (oral), vehicle: other 103 % of control | dose: 100.0 mg/kg/injection, schedule: Q01DX005 (ip), vehicle: other 118 % of control | dose: 100.0 mg/kg/injection, schedule: Q01DX006 (iv), vehicle: other 113 % of control | dose: 100.0 mg/kg/injection, schedule: Q01DX009 (ip), vehicle: other 121 % of control | dose: 100.0 mg/kg/injection, schedule: Q04DX003 (ip), vehicle: other 115 % of control | dose: 100.0 mg/kg/injection, schedule: Q08DX002 (ip), vehicle: other 101 % of control | dose: 150.0 mg/kg/injection, schedule: Q01DX001 (sc), vehicle: other 113 % of control | dose: 150.0 mg/kg/injection, schedule: Q04DX003 (ip), vehicle: other 114 % of control | dose: 150.0 mg/kg/injection, schedule: Q08DX002 (ip), vehicle: other 104 % of control | dose: 200.0 mg/kg/injection, schedule: Q01DX001 (iv), vehicle: other 106 % of control | dose: 200.0 mg/kg/injection, schedule: Q01DX001 (oral), vehicle: other 110 % of control | dose: 200.0 mg/kg/injection, schedule: Q04DX003 (ip), vehicle: other 109 % of control | dose: 200.0 mg/kg/injection, schedule: Q08DX002 (ip), vehicle: other 105 % of control | dose: 300.0 mg/kg/injection, schedule: Q01DX001 (sc), vehicle: other 113 % of control | dose: 300.0 mg/kg/injection, schedule: Q04DX003 (ip), vehicle: other 113 % of control | dose: 300.0 mg/kg/injection, schedule: Q08DX002 (ip), vehicle: other 105 % of control | dose: 360.0 mg/kg/injection, schedule: Q01DX015 (ip), vehicle: gum acacia 110 % of control | dose: 400.0 mg/kg/injection, schedule: Q01DX015 (ip), vehicle: other 105 % of control | dose: 400.0 mg/kg/injection, schedule: Q04DX003 (ip), vehicle: other 115 % of control | dose: 400.0 mg/kg/injection, schedule: Q08DX002 (ip), vehicle: other 103 % of control | dose: 490.0 mg/kg/injection, schedule: Q01DX015 (ip), vehicle: gum acacia 90 % of control | dose: 800.0 mg/kg/injection, schedule: Q04DX003 (ip), vehicle: other 114 % of control
active: dose: 37.5 mg/kg/injection, schedule: Q03HX024 (ip), vehicle: other 160 % of control | dose: 75.0 mg/kg/injection, schedule: Q03HX016 (ip), vehicle: other 163 % of control | dose: 75.0 mg/kg/injection, schedule: Q03HX024 (ip), vehicle: other 189 % of control | dose: 100.0 mg/kg/injection, schedule: Q01DX Z (ip), vehicle: carboxymethylcellulose (CMC) 156 % of control | dose: 100.0 mg/kg/injection, schedule: Q03HX016 (ip), vehicle: other 163 % of control | dose: 100.0 mg/kg/injection, schedule: Q03HX024 (ip), vehicle: other 150 % of control | dose: 146.0 mg/kg/injection, schedule: Q01DX015 (ip), vehicle: gum acacia 152 % of control | dose: 200.0 mg/kg/injection, schedule: Q01DX009 (oral), vehicle: other 152 % of control and 160 % of control | dose: 218.0 mg/kg/injection, schedule: Q01DX015 (ip), vehicle: gum acacia 150 % of control | dose: 327.0 mg/kg/injection, schedule: Q01DX015 (ip), vehicle: gum acacia 152 % of control | dose: 400.0 mg/kg/injection, schedule: Q01DX009 (oral), vehicle: other 158 % of control

From PubChem BioAssay AID248 (DTP/NCI, 2004)
